pEC50: −log10 of the molar value. Entries after “also recorded” stand apart in the source; their conditions may differ.
What was measured:
[1] = test system: paclitaxel-induced cold allodynia; assay: Paclitaxel-induced cold allodynia (acetone); type: in vivo, mouse; conditions: for cold allodynia, chronic phase 1 treatment: 3 mg/kg per day i.p.×12 days
Description: (§1) In all studies, the experimenter was blinded to the treatment condition, and mice were randomly assigned to experimental conditions. Paclitaxel (4 mg/kg i.p.) was administered four times on alternate days (cumulative dose, 16 mg/kg i.p.) to induce neuropathic pain as described previously by our group (Deng et al., 2015). Control mice received an equal volume of cremophor-vehicle. Development of paclitaxel-induced allodynia was assessed on day 0, 4, 7, 11, and 14.
(§2) Effects of pharmacologic manipulations were assessed at 30 minutes after drug administration during the maintenance phase of paclitaxel-induced neuropathy (i.e., beginning day 18-20 after initial paclitaxel injection).
(§3) In experiments 2 and 3, pharmacologic manipulations were performed once daily for 12 consecutive days in each of the two phases of chronic treatment. Four days separated phase 1 and phase 2 chronic dosing in all studies comprising two phases of chronic dosing. Experiments 2 and 3 were performed concurrently using overlapping cohorts that were tested with a single vehicle (phase 1), vehicle (phase 2) group.
(§4) We then assessed the antiallodynic efficacy of chronic systemic administration of vehicle or morphine (10 mg/kg per day i.p.×12 days) administered during phase 2 in the same animals. Responsiveness to mechanical and cold stimulation was evaluated on treatment days 1, 4, 8, and 12 during phase 1 and on treatment days 16, 19, 23, and 27 during phase 2 (i.e., phase 2 started on day 16).
(§5) In experiment 4, we evaluated the impact of coadministration of morphine (10 mg/kg i.p.×12 days) with a submaximal dose of LY 2828360 (0.1 mg/kg per day i.p.×12 days) in WT and CB2 KO mice.
Response time (seconds) spent attending to (i.e., elevating, licking, biting, or shaking) the paw stimulated with acetone (Sigma-Aldrich) was measured in triplicate for each paw to assess cold allodynia as previously published. An acetone bubble (approximately 5 to 6 p.1) formed at the end of a blunt 1-ml syringe hub was gently applied to the plantar surface of the hind paw. Care was taken not to apply mechanical stimulation to the hind paw with the syringe itself. The total time the animal spent attending to the acetone-stimulated paw (i.e., elevation, shaking, or licking) was recorded over 1 minute after acetone application. Acetone was applied three times to each paw with a 3-minute interval between applications. Values for each animal were calculated as the mean of six determinations of acetone responsiveness derived from each mouse.

[2] = test system: paclitaxel-induced mechanical allodynia; assay: Paclitaxel-induced mechanical allodynia (electronic von Frey); type: in vivo, mouse; conditions: for mechanical allodynia, chronic phase 1 treatment: 3 mg/kg per day i.p.×12 days
Description: as §1, §2, §3, §4, §5
Paw withdrawal thresholds (grams) to mechanical stimulation were measured in duplicate for each paw using an electronic von Frey anesthesiometer supplied with a 90-g probe (model Alemo 2390-5; IITC, Woodland Hills, Calif.) as described previously. Mice were placed on an elevated metal mesh table and allowed to habituate under individual, inverted plastic cages to the testing platform for at least 20 minutes until exploratory behavior had ceased. Alter the habituation period, a force was applied to the midplantar region of the hind paw with a semiflexible tip connected to the anesthesiometer. Mechanical stimulation was terminated when the animal withdrew its paw, and the value of the applied force was recorded in grams. Mechanical paw withdrawal thresholds were obtained in duplicate for each paw and are reported as the mean of duplicate determinations from each animal, averaged across animals, for each group.

mouse CB2 receptors [3] = target: T1, mouse CB2 receptors (Mus musculus, UniProt P47936); assay: On-cell western for receptor internalization, HEK mCB2; type: cell-based
T1 construct: expressed in transfected cells

mouse CB2 receptors [4] = target: T1, mouse CB2 receptors; assay: Forskolin-stimulated cAMP accumulation (cyclase), HEK mCB2; type: cell-based; conditions: for Emax: read-out: Cyclase Emax
mouse CB2 receptors [5] = target: T1, mouse CB2 receptors; assay: Myo-inositol phosphate-1 (IP1) accumulation, HEK mCB2; type: cell-based; conditions: via mouse CB2
human CB2 [6] = target: T2, human CB2 (Homo sapiens, UniProt P34972); assay: Forskolin-stimulated cAMP accumulation (cyclase), HEK hCB2; type: cell-based; design: expressed in transfected cells; time of inhibition of forskolin-stimulated cAMP accumulation: dose or concentration left out as unconfirmed
human CB2 [7] = target: T2, human CB2; conditions: at 20 nM; cited from earlier work
human CB2 [8] = target: T2, human CB2; assay: Myo-inositol phosphate-1 (IP1) accumulation, HEK hCB2; type: cell-based; design: expressed in transfected cells; conditions: via human CB2
[9] = test system: naloxone-precipitated opioid withdrawal; assay: Naloxone-precipitated opioid withdrawal in paclitaxel-treated mice; type: in vivo, mouse
Description: Alter the last injection of morphine (on day 28 for two-phase treatments, on day 13 for coadministration treatment), we challenged WT or CB2KO mice from experiments 2, 3, and 4 with vehicle, followed 30 minutes later by naloxone (5 mg/kg i.p.) to precipitate opioid receptor-mediated withdrawal. Mice were video-recorded for subsequent scoring of withdrawal-like behaviors for a 30-minute interval after challenge with vehicle or naloxone.
Mice were video-taped, and the number of jumps was scored in 5-minute intervals for a total observation period of 30 minutes after challenge with either saline or naloxone (5 mg/kg i.p.).

CB1 = CB1 (Homo sapiens, UniProt P21554); conditions: at 100 μM; cited from earlier work
[10] = CB2KO mice, 3 mg/kg per day i.p.×12 days after phase 1 morphine
[11] = CB2KO mice, LY2828360 0.1 mg/kg with morphine 10 mg/kg per day×12 days
[12] = CB2KO mice, LY2828360 phase 1, morphine phase 2
[13] = WT mice, 3 mg/kg per day i.p.×12 days after phase 1 morphine
[14] = WT mice, LY2828360 0.1 mg/kg per day i.p.×12 days with morphine 10 mg/kg per day×12 days
[15] = WT mice, LY2828360 0.1 mg/kg with morphine 10 mg/kg per day×12 days
[16] = WT mice, LY2828360 3 mg/kg per day×12 days phase 1, morphine 10 mg/kg×12 days phase 2
[17] = WT mice, acute systemic (i.p.), dose-dependent
[18] = WT mice, doses lower than 0.3 mg/kg i.p.
[19] = WT mice, phase 1, 3 mg/kg per day i.p.×12 days
[20] = paclitaxel-treated WT mice, naloxone 5 mg/kg i.p.

T1 sequence (P47936 whole entry): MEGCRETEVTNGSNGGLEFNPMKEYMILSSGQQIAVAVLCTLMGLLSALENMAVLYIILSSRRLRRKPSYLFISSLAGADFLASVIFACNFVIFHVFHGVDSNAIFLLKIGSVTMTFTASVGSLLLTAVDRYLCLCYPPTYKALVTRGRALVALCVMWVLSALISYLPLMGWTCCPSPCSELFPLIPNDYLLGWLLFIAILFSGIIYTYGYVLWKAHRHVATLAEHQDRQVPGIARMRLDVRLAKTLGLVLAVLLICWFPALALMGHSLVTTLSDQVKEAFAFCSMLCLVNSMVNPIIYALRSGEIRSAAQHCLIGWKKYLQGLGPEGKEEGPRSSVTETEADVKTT
T2 sequence (P34972 whole entry): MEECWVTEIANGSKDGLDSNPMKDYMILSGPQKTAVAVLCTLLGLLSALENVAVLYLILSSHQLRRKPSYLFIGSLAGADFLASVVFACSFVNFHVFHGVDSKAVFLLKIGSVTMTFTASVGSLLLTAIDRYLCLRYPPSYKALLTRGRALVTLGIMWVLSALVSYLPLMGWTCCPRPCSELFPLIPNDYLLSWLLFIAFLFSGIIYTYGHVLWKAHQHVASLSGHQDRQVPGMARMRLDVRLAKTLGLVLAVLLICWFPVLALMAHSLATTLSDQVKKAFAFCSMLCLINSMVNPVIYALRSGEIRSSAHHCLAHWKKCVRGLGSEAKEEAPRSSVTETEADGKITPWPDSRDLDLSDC
Chain of CB1 (P21554 whole entry, species assumed): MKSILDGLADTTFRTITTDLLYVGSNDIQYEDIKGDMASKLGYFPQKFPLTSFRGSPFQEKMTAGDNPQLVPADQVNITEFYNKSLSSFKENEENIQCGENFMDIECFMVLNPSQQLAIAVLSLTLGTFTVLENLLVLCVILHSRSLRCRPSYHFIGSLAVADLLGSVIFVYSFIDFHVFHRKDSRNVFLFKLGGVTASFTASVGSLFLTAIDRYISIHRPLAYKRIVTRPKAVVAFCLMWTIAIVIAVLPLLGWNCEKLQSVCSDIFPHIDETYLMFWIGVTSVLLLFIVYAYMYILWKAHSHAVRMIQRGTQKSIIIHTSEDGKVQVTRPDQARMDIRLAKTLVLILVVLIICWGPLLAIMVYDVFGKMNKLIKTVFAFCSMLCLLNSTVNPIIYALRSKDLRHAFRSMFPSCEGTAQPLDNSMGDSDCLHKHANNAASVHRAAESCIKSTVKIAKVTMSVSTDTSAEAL

Cc1nc(N2CCN(C)CC2)c2nc(-c3ccccc3Cl)n(C3CCOCC3)c2n1 [LY2828360, 8-(2-chlorophenyl)-2-methyl-6-(4-methylpiperazin-1-yl)-9-(tetrahydro-2H-pyran-4-yl)-9H-purine]
time for responsiveness to cold stimulation to return to baseline ([1]; 3 mg/kg i.p. acute): 3 days
cold allodynia, chronic phase 1 treatment ([1]; CB2KO mice): failed to suppress
cold responsiveness, phase 2 treatment of morphine-tolerant mice [1, 10]: did not alter responsiveness to mechanical or cold stimulation
cold allodynia, coadministration with morphine [1, 11]: sustained antiallodynic efficacy was absent
development of tolerance to antiallodynic effect of phase 2 morphine, cold [1, 12]: did not block the development of morphine tolerance
paclitaxel-induced cold allodynia, high dose ([1]; WT mice, 3 mg/kg i.p. acute): fully reversed paclitaxel-induced allodynia and normalized responses to pre-paclitaxel baseline levels
cold allodynia, chronic phase 1 treatment ([1]; WT mice): markedly suppressed paclitaxel-induced mechanical and cold allodynia throughout the observation interval
cold allodynia, phase 2 treatment of morphine-tolerant mice [1, 13]: fully reversed paclitaxel-induced allodynia and normalized responsiveness to pre-paclitaxel baseline levels
tolerance to phase 2 treatment, cold [1, 13]: tolerance did not develop
cold allodynia, coadministration with morphine [1, 14]: normalized cold responsiveness on days 1 and 4
development of morphine tolerance under coadministration, cold [1, 15]: morphine tolerance failed to develop
development of tolerance to antiallodynic effect of phase 2 morphine, cold [1, 16]: prevented the development of morphine tolerance
paclitaxel-induced cold allodynia, acute dose response [1, 17]: suppressed
cold allodynia at low doses vs cremophor-vehicle controls [1, 18]: neuropathic pain was prominent
stability of antiallodynic efficacy (tolerance), cold [1, 19]: stable throughout phase 1 treatment
time for responsiveness to mechanical stimulation to return to baseline ([2]; 3 mg/kg i.p. acute): 1 days
mechanical allodynia, chronic phase 1 treatment ([2]; CB2KO mice): failed to suppress
mechanical responsiveness, phase 2 treatment of morphine-tolerant mice [2, 10]: did not alter responsiveness to mechanical or cold stimulation
mechanical allodynia, coadministration with morphine [2, 11]: sustained antiallodynic efficacy was absent
development of tolerance to antiallodynic effect of phase 2 morphine, mechanical [2, 12]: did not block the development of morphine tolerance
paclitaxel-induced mechanical allodynia, high dose ([2]; WT mice, 3 mg/kg i.p. acute): fully reversed paclitaxel-induced allodynia and normalized responses to pre-paclitaxel baseline levels
mechanical allodynia, chronic phase 1 treatment ([2]; WT mice): markedly suppressed paclitaxel-induced mechanical and cold allodynia throughout the observation interval
mechanical allodynia, phase 2 treatment of morphine-tolerant mice [2, 13]: fully reversed paclitaxel-induced allodynia and normalized responsiveness to pre-paclitaxel baseline levels
tolerance to phase 2 treatment, mechanical [2, 13]: tolerance did not develop
mechanical allodynia, coadministration with morphine [2, 14]: fully reversed paclitaxel-induced mechanical allodynia and normalized responses to pre-paclitaxel baseline levels throughout the observation period
development of morphine tolerance under coadministration, mechanical [2, 15]: morphine tolerance failed to develop
development of tolerance to antiallodynic effect of phase 2 morphine, mechanical [2, 16]: prevented the development of morphine tolerance
paclitaxel-induced mechanical allodynia, acute dose response [2, 17]: suppressed
mechanical allodynia at low doses vs cremophor-vehicle controls [2, 18]: neuropathic pain was prominent
stability of antiallodynic efficacy (tolerance), mechanical [2, 19]: stable throughout phase 1 treatment
receptor internalization (mouse CB2 receptors [3]; HEK mCB2): failed to internalize the receptor; also recorded: less potent and efficacious
pEC50 (mouse CB2 receptors [3]; mouse CB2, 90 mins incubation, read-out: Internalization EC50): 7.51
Emax (mouse CB2 receptors [3]; mouse CB2, 90 mins incubation, read-out: Internalization Emax): 19.1%
forskolin-stimulated cAMP after PTX treatment (mouse CB2 receptors [4]; mCB2, 1 μM, PTX 300 ng/ml overnight): failed to affect cyclase levels at all time points
time of efficacious inhibition of forskolin-stimulated adenylyl cyclase (mouse CB2 receptors [4]; mCB2, 1 μM, time course): 30 min
inhibition of forskolin-stimulated cAMP accumulation in presence of SR144528 (mouse CB2 receptors [4]; mCB2, 30-minute incubation, 1 μM SR144528 (SR2)): completely blocked
inhibition of forskolin-stimulated cAMP accumulation, concentration response (mouse CB2 receptors [4]; mCB2, 5 minutes): had no effect
inhibition of forskolin-stimulated cAMP accumulation, concentration response (mouse CB2 receptors [4]; mCB2, 30 minutes): potent, efficacious, and CB2 receptor mediated
Emax (mouse CB2 receptors [4]; mouse CB2, 05 mins incubation): 18.9%
pEC50 (mouse CB2 receptors [4]; mouse CB2, 30 mins incubation, read-out: Cyclase EC50): 7.87
Emax (mouse CB2 receptors [4]; mouse CB2, 30 mins incubation): 53.4%
IP1 accumulation (mouse CB2 receptors [5]): did not affect IP1 accumulation
inhibition of forskolin-stimulated cAMP accumulation (human CB2 [6]; hCB2, 5 minutes of treatment): had no effect
inhibition of forskolin-stimulated cAMP accumulation (human CB2 [6]; hCB2, 35 minutes): potent and efficacious agonist
inhibition of forskolin-stimulated cAMP accumulation in presence of SR144528 (human CB2 [6]; hCB2, 35 minutes): completely blocked
time of inhibition of forskolin-stimulated cAMP accumulation (human CB2 [6]; hCB2, time course): 35 min
inhibition of cAMP accumulation after PTX pretreatment (human CB2 [6]; hCB2, time course, PTX): abolished this effect
Emax (human CB2 [6]; human CB2, 35 mins incubation, read-out: Cyclase Emax): 42.8%
maximal stimulation of CB2 (human CB2 [7]): approximately 87%
IP1 accumulation (human CB2 [8]): did not affect IP1 accumulation
naloxone-precipitated jumps, WT compared with CB2KO mice ([9]; coadministration of LY2828360 with morphine, P=0.055): trended to produce a lower number of naloxone-precipitated jumps
number of jumps, LY (1)-Mor (2) vs Veh (1)-Mor (2) ([9]; paclitaxel-treated CB2KO mice): did not differ
number of jumps, LY (1)-Mor (2) vs Veh (1)-Veh (2) ([9]; paclitaxel-treated CB2KO mice): trended higher
number of jumps, LY (1)-Mor (2) vs Veh (1)-Mor (2) [9, 20]: did not differ
number of naloxone-precipitated jumps, LY (1)-Mor (2) vs Veh (1)-Veh (2) [9, 20]: did not differ
maximal stimulation of CB1 (CB1): 15%

Reference: US20190314379A1, “METHODS OF USING CANNABINOID CB2 RECEPTOR AGONIST COMPOSITIONS TO SUPPRESS AND PREVENT OPIOID TOLERANCE AND WITHDRAWAL IN A SUBJECT” (Indiana University Research and Technology Corporation, priority 2018, published 2019)
